Structures are written as SMILES.

One assay has as its target Prothrombin (Bos taurus) (UniProt P00735). Kind of assay: Rate of hydrolysis by thrombin relative to TAME.
Conditions: not given
For the compound `CN(C)c1cccc2c(S(=O)(=O)NC(CCCN=C(N)N)C(=O)OCCCCl)cccc12` (configuration not stated), the Relative hydrolysis was found to be 0.084.

For another assay, the target named is Serine protease 1 (Homo sapiens) (UniProt P07477). Nature of the assay: Rate of hydrolysis by trypsin relative to TAME.
Chain of Serine protease 1 (Homo sapiens) (P07477 whole entry): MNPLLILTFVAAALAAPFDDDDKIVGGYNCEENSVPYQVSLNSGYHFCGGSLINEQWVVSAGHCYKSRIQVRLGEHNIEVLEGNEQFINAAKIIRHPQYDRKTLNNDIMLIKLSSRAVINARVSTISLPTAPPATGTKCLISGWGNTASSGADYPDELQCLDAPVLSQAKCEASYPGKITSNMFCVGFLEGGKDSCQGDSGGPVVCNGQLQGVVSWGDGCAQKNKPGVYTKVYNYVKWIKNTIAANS
Conditions: not given
With `CN(C)c1cccc2c(S(=O)(=O)NC(CCCN=C(N)N)C(=O)OCCCCl)cccc12` (configuration not stated), the Relative hydrolysis was determined as 0.5.

A further assay has as its target T1, Prothrombin (Bos taurus, UniProt P00735). Nature of the assay: Concentration at which the clotting time was prolonged by twice the control was determined using topical bovine thrombin. The assay is classed as functional. Conditions: read-out: I50.
For the compound `CCOC(=O)C(CCCNC(=N)N)NS(=O)(=O)c1cccc2c(N(C)C)cccc12` (configuration not stated), the IC50 worked out at 8 µM.

Regarding `CCCCCOC(=O)C(CCCN=C(N)N)NS(=O)(=O)c1cccc2c(N(C)C)cccc12` (configuration not stated), the IC50 turned out to be 49 µM. Take `COC(=O)C(CCCNC(=N)N)NS(=O)(=O)c1ccc(Cl)cc1` (configuration not stated): the IC50 was determined as 2700 µM.

For the compound `COC(=O)C(CCCN=C(N)N)NS(=O)(=O)c1ccc(N)cc1` (configuration not stated), the IC50 came to 4800 µM.

On to `COCCOC(=O)C(CCCNC(=N)N)NS(=O)(=O)c1cccc2c(N(C)C)cccc12` (configuration not stated), for which the IC50 came to 5 µM.

As for `COC(=O)C(CCCN=C(N)N)NS(=O)(=O)c1cccc2c(N(C)C)cccc12` (configuration not stated), the IC50 stood at 20 µM. As for `CCCOC(=O)C(CCCN=C(N)N)NS(=O)(=O)c1cccc2c(N(C)C)cccc12` (configuration not stated), the IC50 worked out at 2 µM.

For `COC(=O)C(CCCN=C(N)N)NS(=O)(=O)c1ccc2ccccc2c1` (configuration not stated), the IC50 turned out to be 130 µM. Regarding `CCC(C)OC(=O)C(CCCNC(=N)N)NS(=O)(=O)c1cccc2c(N(C)C)cccc12` (configuration not stated), the IC50 was found to be 2000 µM. Still for that read-out and setting: the same measure for `COC(=O)C(CCCN=C(N)N)NS(=O)(=O)c1cccc([N+](=O)[O-])c1` (configuration not stated): 2900 µM; for `COC(=O)C(CCCNC(=N)N)NS(=O)(=O)c1ccc(OC)cc1` (configuration not stated): 100 µM; for `CN(C)c1cccc2c(S(=O)(=O)NC(CCCN=C(N)N)C(=O)OC3CCCCC3)cccc12` (configuration not stated): 60 µM. On to `COC(=O)C(CCCN=C(N)N)NS(=O)(=O)c1ccc([N+](=O)[O-])cc1` (configuration not stated), for which the IC50 was determined as 2400 µM. Turning to `CN(C)c1cccc2c(S(=O)(=O)NC(CCCNC(=N)N)C(=O)OCC3CCCO3)cccc12` (configuration not stated), the IC50 was found to be 20 µM. For the compound `CN(C)c1cccc2c(S(=O)(=O)NC(CCCNC(=N)N)C(=O)OCc3ccccc3)cccc12` (configuration not stated), the IC50 was determined as 2 µM. As for `COC(=O)C(CCCN=C(N)N)NS(=O)(=O)c1cccc2cc(N(C)C)ccc12` (configuration not stated), the IC50 was 100 µM. Consider `COC(=O)C(CCCNC(=N)N)NS(=O)(=O)c1cccc2ccccc12` (configuration not stated), for which the IC50 worked out at 520 µM. In the case of `CC(C)COC(=O)C(CCCN=C(N)N)NS(=O)(=O)c1cccc2c(N(C)C)cccc12` (configuration not stated), the IC50 worked out at 10 µM. Still for that read-out and setting: the same measure for `CN(C)c1cccc2c(S(=O)(=O)NC(CCCN=C(N)N)C(=O)O)cccc12` (configuration not stated): more than 1000 µM. On to `C#CCCOC(=O)C(CCCN=C(N)N)NS(=O)(=O)c1cccc2c(N(C)C)cccc12` (configuration not stated), for which the IC50 turned out to be 4 µM. For `COC(=O)C(CCCN=C(N)N)NS(=O)(=O)c1ccc(F)cc1` (configuration not stated), the IC50 was 5200 µM. `C/C=C/COC(=O)C(CCCNC(=N)N)NS(=O)(=O)c1cccc2c(N(C)C)cccc12` (configuration not stated): the IC50 turned out to be 2 µM. Consider `CC(C)OC(=O)C(CCCNC(=N)N)NS(=O)(=O)c1cccc2c(N(C)C)cccc12` (configuration not stated), for which the IC50 is 30 µM.

As to `CCC(COC(=O)C(CCCN=C(N)N)NS(=O)(=O)c1cccc2c(N(C)C)cccc12)[N+](=O)[O-]` (configuration not stated), the IC50 is 200 µM.

The target in a further assay is T1, Prothrombin. Kind of assay: Concentration at which the clotting time was prolonged by twice the control was determined using commercial topical bovine thrombin. The assay is classed as functional.
Conditions: not given
With `COC(=O)C(CCCN=C(N)N)NS(=O)(=O)c1cccc2c(N(C)C)cccc12` (configuration not stated), the IC50 turned out to be 2000 µM.

(Values after ChEMBL document CHEMBL1121483, “Thrombin inhibitors. 1. Ester derivatives of N alpha-(arylsulfonyl)-L-arginine” (J Med Chem, 1980).)
